US20250268876A1, “TREATMENT OF HIDRADENITIS SUPPURATIVA WITH ORISMILAST” (UNION THERAPEUTICS A/S, priority 2021, published 2025)
Values joined by “and” are separate entries in the source; they are usually repeats but may differ in a detail not shown here. Equal entries are not always repeated. Where two headings read alike, the source gives them in different places.

Tests used:
human PBMC = assay: Viability, serum-free, hPBMC, LPS (ATP); format: cell-based
Protocol: Viability, Serum-Free, hPBMC, LPS
The viability of the cells from the TNF-α assay is measured in the wells using the ATP vialight kit (Perkin Elmer, ATP-lite M, cat. no 6016949). The assay detects the amount of ATP using a bioluminescent method that utilizes an enzyme, luciferase, which catalyses the formation of light from ATP and luciferin according to the following reaction:
The emitted light intensity is linearly related to the ATP concentration and is measured using a luminometer. The effect (inhibition of viability) of a test compound was calculated using equation 1:
[formula] • where • So=Emitted light intensity reflecting the ATP concentration in the presence of 0.1% DMSO, • Sc=Emitted light intensity reflecting the ATP concentration in the presence of 10 μM Actinomycin in 0.1% DMSO and • Sx=Emitted light intensity reflecting the ATP concentration in the presence of test compound in 0.1% DMSO.
(§1) This model describes a sigmoidal curve with an adjustable baseline, a. […]
[formula] • where • C=concentration of test compound • % Effect=normalized response calculated as described in Equation 1 • Emin=min response as compound concentration approaches 0 • Emax=max response as concentration of tested compound is increasing • EC50=Concentration of tested compound giving a response in the middle of Emin and Emax • nH=Hill coefficient or curve slope.

in vivo = conditions: ferret, po
PDE4A1 = PDE4A1 (Homo sapiens, UniProt P27815); assay: biochemical
PDE4A1, sequence (P27815 1-647 isoform P27815-4): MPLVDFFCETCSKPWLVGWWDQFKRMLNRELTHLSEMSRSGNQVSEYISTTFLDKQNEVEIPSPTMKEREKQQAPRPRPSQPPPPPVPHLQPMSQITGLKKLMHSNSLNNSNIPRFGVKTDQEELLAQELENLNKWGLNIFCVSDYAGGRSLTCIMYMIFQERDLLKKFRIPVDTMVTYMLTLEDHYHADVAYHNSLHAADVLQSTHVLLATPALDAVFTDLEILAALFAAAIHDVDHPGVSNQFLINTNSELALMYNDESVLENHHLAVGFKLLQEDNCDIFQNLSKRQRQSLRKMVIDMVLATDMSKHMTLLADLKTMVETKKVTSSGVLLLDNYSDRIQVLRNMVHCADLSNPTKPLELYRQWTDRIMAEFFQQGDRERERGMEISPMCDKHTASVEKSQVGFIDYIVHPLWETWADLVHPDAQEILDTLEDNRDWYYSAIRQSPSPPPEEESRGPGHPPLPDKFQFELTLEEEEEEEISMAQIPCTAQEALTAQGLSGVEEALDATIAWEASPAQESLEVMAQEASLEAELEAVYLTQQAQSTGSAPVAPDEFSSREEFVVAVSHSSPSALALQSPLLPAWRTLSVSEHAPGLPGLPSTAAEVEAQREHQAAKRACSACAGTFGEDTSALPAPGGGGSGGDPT

PDE4A4 = PDE4A4 (Homo sapiens, UniProt P27815); assay: IMAP fluorescence polarisation PDE4 subtype assay; format: biochemical
PDE4A4, sequence (P27815 whole entry): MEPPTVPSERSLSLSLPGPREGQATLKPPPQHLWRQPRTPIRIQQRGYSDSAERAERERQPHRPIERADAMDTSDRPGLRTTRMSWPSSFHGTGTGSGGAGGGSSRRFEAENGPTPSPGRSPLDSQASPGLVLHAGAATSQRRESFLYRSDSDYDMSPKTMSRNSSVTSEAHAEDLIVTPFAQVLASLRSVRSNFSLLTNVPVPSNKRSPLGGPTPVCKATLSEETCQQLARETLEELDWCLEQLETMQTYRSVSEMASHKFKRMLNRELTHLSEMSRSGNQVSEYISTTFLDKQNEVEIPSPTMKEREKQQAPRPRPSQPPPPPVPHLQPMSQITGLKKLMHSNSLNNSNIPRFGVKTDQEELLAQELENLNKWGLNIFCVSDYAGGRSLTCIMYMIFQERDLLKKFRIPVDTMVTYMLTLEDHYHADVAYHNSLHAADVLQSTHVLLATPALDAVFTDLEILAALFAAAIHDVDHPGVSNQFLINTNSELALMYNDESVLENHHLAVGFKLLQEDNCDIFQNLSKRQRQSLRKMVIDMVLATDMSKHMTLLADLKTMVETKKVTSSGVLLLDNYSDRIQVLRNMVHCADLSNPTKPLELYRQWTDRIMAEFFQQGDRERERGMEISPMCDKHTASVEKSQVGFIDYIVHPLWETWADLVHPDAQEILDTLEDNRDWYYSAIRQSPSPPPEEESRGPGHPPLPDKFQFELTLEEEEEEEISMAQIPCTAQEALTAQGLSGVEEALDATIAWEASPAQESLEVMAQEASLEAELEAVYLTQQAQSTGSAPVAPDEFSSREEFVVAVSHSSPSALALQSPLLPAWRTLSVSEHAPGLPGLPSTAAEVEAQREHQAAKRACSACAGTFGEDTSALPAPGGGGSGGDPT
Protocol: The binding reagent complexes with phosphate groups on nucleotide monophosphate generated from cyclic nucleotides (cAMP/cGMP) through phosphodiesterases. With fluorescence polarisation detection, binding causes a change in the rate of the molecular motion of the phosphate bearing molecule, and results in an increase in the fluorescence polarization value observed for the fluorescent label attached to the substrate. […] All assays were performed in 3% (final) DMSO for the IMAP assay.

[1] = test system: TNF-α release from human peripheral blood mononuclear cells; assay: TNF-α release, serum-free, hPBMC, LPS; format: cell-based; conditions: PBMC, 18 hours
Protocol: TNF-α, Serumfree, hPBMC, LPS
Cultures of human PBMC isolated from buffy coats were stimulated with lipopolysaccharide to activate the monocytes and to release TNF-α. PBMC were isolated from fresh buffy coats and frozen for later use. On the assay day, cells were thawed, washed in serum free medium (RPMI1640 with 25 mM HEPES, 1% pen/strep, […] L glutamine and 0.5% human serum albumin) and living cells were counted. Test compounds were diluted in DMSO and further diluted in serum-free medium and pipetted into wells of 384 well tissue culture plates. LPS was added to the cells which shortly thereafter were added to the wells with titrated test compounds and incubated for 18 hours at 37° C. The next day, the level of TNF-α in the culture supernatant was quantitated by homogenous time-resolved fluorescence (HTRF) where FRET was measured at 665 nm and normalized to the fluorescence of europium cryptate at 620 nm. The effect (inhibition of TNF-α release) of a test compound was calculated using equation 1: […]
Fluorescence intensities, measured at 665 nm and 620 nm, were used to calculate the 665/620 ratio as an estimate of the level of secreted TNF-α. Sx denotes the 665/620 ratio associated with the test compound. So and Sc denote the 665/620 ratios associated with 0.1% DMSO and 1E-05 M compound (II), respectively.
as §1

[2] = test system: TNF-α secretion from human whole blood; assay: Whole blood TNF-α secretion assay (LPS or SEB); format: cell-based; conditions: for times more potent than Roflumilast / times more potent than apremilast: mean EC50 values; for Emax / EC50: Homo sapiens; for Emax: read-out: Emax
PDE4D3 = PDE4D3 (Homo sapiens, UniProt Q08499); assay: IMAP fluorescence polarisation PDE4 subtype assay; format: biochemical; conditions: compound 10^−7 M
PDE4D3, sequence (Q08499 1-673 isoform Q08499-2): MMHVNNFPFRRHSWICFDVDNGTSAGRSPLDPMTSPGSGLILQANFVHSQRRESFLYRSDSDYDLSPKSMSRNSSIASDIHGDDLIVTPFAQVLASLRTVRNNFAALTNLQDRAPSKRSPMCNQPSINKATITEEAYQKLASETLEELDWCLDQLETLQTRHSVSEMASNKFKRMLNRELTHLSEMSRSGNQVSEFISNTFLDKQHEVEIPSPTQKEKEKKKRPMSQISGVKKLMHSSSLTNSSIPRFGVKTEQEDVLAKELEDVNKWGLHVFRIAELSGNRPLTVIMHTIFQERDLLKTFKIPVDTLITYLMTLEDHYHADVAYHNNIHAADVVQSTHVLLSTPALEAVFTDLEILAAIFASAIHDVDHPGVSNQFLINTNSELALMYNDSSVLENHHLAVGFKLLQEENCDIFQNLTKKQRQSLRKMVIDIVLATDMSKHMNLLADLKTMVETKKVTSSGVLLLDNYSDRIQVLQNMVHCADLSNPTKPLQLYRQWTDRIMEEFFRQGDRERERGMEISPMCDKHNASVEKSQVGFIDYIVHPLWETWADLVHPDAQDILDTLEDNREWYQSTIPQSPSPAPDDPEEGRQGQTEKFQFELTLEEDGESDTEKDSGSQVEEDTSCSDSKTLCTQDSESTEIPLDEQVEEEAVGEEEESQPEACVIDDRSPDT

O=C(Cc1c(Cl)c[n+]([O-])cc1Cl)c1ccc(OC(F)F)c2c1OC1(CCS(=O)(=O)CC1)O2 [Compound (I), 2-(3,5-Dichloro-1-oxido-pyridine-4-yl)-1-(7-difluoro-methoxy-2′,3′,5′,6′-tetrahydro-spiro[1,3-benzodioxole-2,4′-(4H)-thiopyran-1′,1′-dioxide]-4-yl)ethanone]
Viability Emax, % (human PBMC): 7%
EC50 (human PBMC; Homo sapiens, PBMC): > 9990 nM
NOAEL at 3 h (in vivo): 3 mg/kg
IC50 (PDE4A1): 16 nM
inhibition at 0.1 µM (PDE4A4; compound 10^−7 M): 47%
inhibition at 0.01 µM (PDE4A4; compound 10^−8 M): 24%
inhibition at 0.001 µM (PDE4A4; compound 10^−9 M): 0%
inhibition at 0.0001 µM (PDE4A4; compound 10^−10 M): 0%
EC50 [1]: 11.4 nM
Emax [1]: 102%
times more potent than Roflumilast ([2]; (M)): 1.7 times
times more potent than Roflumilast ([2]; (ng/mL)): 1.4 times
Emax ([2]; 24 h, LPS 1 μg/mL, 24 hours, donor 1, Emax defined as TNF-α level in un-stimulated wells): 76%
EC50 ([2]; 24 h, LPS 1 μg/mL, 24 hours, donor 1, read-out: EC50): 5.34 nM
EC50 ([2]; 24 h, LPS 1 μg/mL, 24 hours, donor 2, read-out: EC50): 18.4 nM
Emax ([2]; 24 h, LPS 1 μg/mL, 24 hours, donor 2): 79%
EC50 ([2]; 24 h, SEB 1 μg/mL, 24 hours, donor 1, read-out: EC50): 4.93 nM
Emax ([2]; 24 h, SEB 1 μg/mL, 24 hours, donor 1): 97%
EC50 ([2]; 24 h, SEB 1 μg/mL, 24 hours, donor 2, read-out: EC50): 24.9 nM
Emax ([2]; 24 h, SEB 1 μg/mL, 24 hours, donor 2): 66%
EC50 ([2]; 48 h, LPS 1 μg/mL, 48 hours, donor 1, read-out: EC50): 12.1 nM
Emax ([2]; 48 h, LPS 1 μg/mL, 48 hours, donor 1): 71%
EC50 ([2]; 48 h, LPS 1 μg/mL, 48 hours, donor 2, read-out: EC50): 19.8 nM
Emax ([2]; 48 h, LPS 1 μg/mL, 48 hours, donor 2): 80%
EC50 ([2]; 48 h, SEB 1 μg/mL, 48 hours, donor 1, read-out: EC50): 4.66 nM
Emax ([2]; 48 h, SEB 1 μg/mL, 48 hours, donor 1): 98%
EC50 ([2]; 48 h, SEB 1 μg/mL, 48 hours, donor 2, read-out: EC50): 47.8 nM
Emax ([2]; 48 h, SEB 1 μg/mL, 48 hours, donor 2): 83%
EC50 ([2]; mean of 8 determinations (LPS and SEB, 24 and 48 hours, 2 donors), read-out: Geometric mean of EC50 values across different assay parameters): 12.6 nM and 0.00643 µg/mL
Potency compared with roflumilast-N-oxide (in words) ([2]; LPS and SEB-induced TNF-α secretion): equipotent to—or slightly more potent than
times more potent than apremilast ([2]; based on molar concentrations): 23 times
times more potent than apremilast ([2]; based on ng/mL concentrations): 21 times
inhibition at 0.1 µM (PDE4D3): 74%
